Here are results for four molecules from patent publication US8119674B2, “4-phenylimidazole-2-thione tyrosinase inhibitors and pharmaceutical/cosmetic applications thereof” (Galderma Research & Development, priority 2007, dated 2012).

The assay deals with T1, tyrosinase (Mus musculus, UniProt P11344).
T1 construct: the supernatant obtained constitutes the cell lysate used as tyrosinase source in the enzymatic assay; endogenous in cells; host or cells: B16F1 murine melanoma cells, cultured with alpha-MSH; detergent/ultrasound lysate supernatant
T1 sequence (P11344 19-533): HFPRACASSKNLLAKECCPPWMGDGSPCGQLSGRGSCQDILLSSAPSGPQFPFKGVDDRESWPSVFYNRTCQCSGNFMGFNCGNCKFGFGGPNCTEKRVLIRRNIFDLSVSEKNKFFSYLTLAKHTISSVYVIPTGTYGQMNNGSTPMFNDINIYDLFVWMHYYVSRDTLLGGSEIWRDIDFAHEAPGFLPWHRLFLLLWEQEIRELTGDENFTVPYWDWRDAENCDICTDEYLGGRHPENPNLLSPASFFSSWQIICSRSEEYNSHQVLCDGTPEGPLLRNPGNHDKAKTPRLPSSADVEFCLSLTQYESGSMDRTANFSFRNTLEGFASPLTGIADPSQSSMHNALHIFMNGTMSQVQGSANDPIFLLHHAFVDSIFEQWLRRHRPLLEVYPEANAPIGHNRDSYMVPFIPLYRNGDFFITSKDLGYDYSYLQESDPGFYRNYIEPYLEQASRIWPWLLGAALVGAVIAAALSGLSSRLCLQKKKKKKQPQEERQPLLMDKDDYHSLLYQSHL
Description: Tyrosinase activity inhibition assay (B16F1 cell lysate, L-tyrosine substrate, MBTH, absorbance at 520 nm). Type of assay: biochemical. The following applies: lysate of B16F1 cells (murine melanoma line) as tyrosinase source; 37° C., reading at 520 nm after 6 hours; read-out: Tyrosine hydroxylase/Dopa oxidase IC50. On the procedure:
The activity of the inhibitors is measured starting from a lysate of B16F1 cells (murine melanoma line). In the presence of the L-tyrosine substrate, the tyrosinase present in these cells catalyses the hydroxylation of L-tyrosine to give L-DOPA and then the oxidation of the L-DOPA to give dopaquinone. In the presence of MBTH (3-methyl-2-benzothiazolinone hydrazone), the dopaquinone is trapped so as to form a pink complex which absorbs at 520 nm.
The B16F1 cells are cultured in DMEM medium+10% foetal calf serum+10^−9 M α-MSH for 4 days at 37° C. under 7% CO2. They are treated with trypsin, washed with PBS, counted and pelleted. The pellet is taken up at 10^7 cells/ml in lysis buffer (10 mM sodium phosphate, pH 6.8-1% Igepal) and the suspension is treated with ultrasound for 10 seconds. After centrifugation for 30 minutes at 4000 rpm, the supernatant obtained constitutes the cell lysate used as tyrosinase source in the enzymatic assay.
The assays are carried out in duplicate in 384-well plates in a total volume of 50 μl. Each well contains:
40 μl of solution containing 1.25 mM L-tyrosine, 6.25 μM L-DOPA (cofactor) and 3.75 mM MBTH in buffer B (62.25 mM sodium phosphate, pH 6.8-2.5% dimethylformamide),
5 μl of inhibitor diluted in DMSO,
5 μl of cell lysate diluted to ½ in 50 mM Tris HCl buffer, pH 7.5.
The plate is incubated at 37° C. and a spectrophotometric reading is carried out at 520 nm after incubating for 6 hours. To avoid any possible absorption of the products, the system uses corrected absorbance (absorbance at time 6 h−absorbance at time zero).
The inhibitors are assayed in terms of dose-response so as to calculate an IC50 (dose which inhibits 50% of the enzymatic activity).
Several internal controls are added to each experiment:
control for 100% activity: the 5 μl of inhibitor are replaced with 5 μl of DMSO,
control for 50% activity: the 5 μl of inhibitor are replaced with 5 μl of phenylthiourea at 300 μM in DMSO,
control for 0% activity: the L-tyrosine substrate is replaced with buffer B.
Consider `OCc1ccc(-c2c[nH]c(=S)[nH]2)cc1` [Compound 7, 4-(4-(Hydroxymethyl)phenyl)-1,3-dihydroimidazole-2-thione], for which the IC50 turned out to be 0.3 µM.
Turning to `FC(F)Oc1ccc(-c2c[nH]c(=S)[nH]2)cc1` [Compound 9, 4-(4-(Difluoromethoxy)phenyl)-1,3-dihydroimidazole-2-thione], the IC50 came out at 0.4 µM.
Consider `O=C(O)c1ccc(-c2c[nH]c(=S)[nH]2)cc1` [Compound 3, 4-(4-Carboxyphenyl)-1,3-dihydroimidazole-2-thione], for which the IC50 worked out at 0.2 µM.
The same measure for `COc1cccc(-c2c[nH]c(=S)[nH]2)c1` [Compound 11, 4-(3-Methoxyphenyl)-1,3-dihydroimidazole-2-thione]: 1.4 µM.
